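Five concentrations, 48 hours, 96-well plates. At the GI50, growth is halved.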 The source made the active and inactive calls. Cut-off read from the data, not from the text of the source: active = GI50 up to about 1.1 µM and inactive = higher.
Key:
Assay in all cases: inhibition of tumour cell growth, NCI panel, 48 h
MDA-MB-435 = test system: MDA-MB-435
OVCAR-3 = test system: OVCAR-3
OVCAR-8 = test system: OVCAR-8
HOP-62 = test system: HOP-62
786-0 = test system: 786-0
SF-268 = test system: SF-268
A498 = test system: A498
A549 = test system: A549
K562 = test system: K562
SK-MEL-28 = test system: SK-MEL-28
COLO 205 = test system: COLO 205
PC-3 = test system: PC-3
DU-145 = test system: DU-145
CAKI-1 = test system: CAKI-1
RXF 393 = test system: RXF 393
LOX IMVI = test system: LOX IMVI
HT-29 = test system: HT-29
HCT-15 = test system: HCT-15
MDA-N = test system: MDA-N
NCI-H23 = test system: NCI-H23

| Structure (SMILES) | GI50 (MDA-MB-435) | GI50 (OVCAR-3) | GI50 (OVCAR-8) | GI50 (HOP-62) | GI50 (786-0) | GI50 (SF-268) | GI50 (A498) | GI50 (A549) | GI50 (K562) | GI50 (SK-MEL-28) | GI50 (COLO 205) | GI50 (PC-3) | GI50 (DU-145) | GI50 (CAKI-1) | GI50 (RXF 393) | GI50 (LOX IMVI) | GI50 (HT-29) | GI50 (HCT-15) [µM] | GI50 (MDA-N) | GI50 (NCI-H23) |
| --- | --- | --- | --- | --- | --- | --- | --- | --- | --- | --- | --- | --- | --- | --- | --- | --- | --- | --- | --- | --- |
| CCN(CC)C(=S)N/N=C1\C(=O)Nc2ccccc21 | 2.51 µM (inactive) | 0.192 µM (active) | 0.813 µM (active) | 0.431 µM (active) | 0.432 µM (active) | > 100 µM (inactive) | 1.25 µM (inactive) | 0.638 µM (active) | 0.562 µM (active) | > 100 µM (inactive) | 0.659 µM (active) | 0.334 µM (active) | > 100 µM (inactive) | 0.895 µM (active) | 1.3 µM (inactive) | 0.495 µM (active) | 1.18 µM (inactive) | 0.413 | 2.01 µM (inactive) | 2.9 µM (inactive) |
| Cc1cc(N)c2cc(NC(=O)Nc3ccc4nc(C)cc(N)c4c3)ccc2n1 | > 100 µM (inactive) | > 100 µM (inactive) | > 100 µM (inactive) | 61.8 µM (inactive) | > 100 µM (inactive) | > 100 µM (inactive) | > 100 µM (inactive) | > 100 µM (inactive) | > 100 µM (inactive) | > 100 µM (inactive) | > 100 µM (inactive) | > 100 µM (inactive) | > 100 µM (inactive) | > 100 µM (inactive) |  | > 100 µM (inactive) | > 100 µM (inactive) | > 100 | > 100 µM (inactive) | > 100 µM (inactive) |
| CCOC(=O)NC(NC1=NCCS1)(C(=O)OCC)C(F)(F)F (stereo not drawn) | > 100 µM (inactive) | > 100 µM (inactive) | > 100 µM (inactive) | > 100 µM (inactive) | > 100 µM (inactive) | > 100 µM (inactive) | > 100 µM (inactive) | > 100 µM (inactive) | > 100 µM (inactive) | > 100 µM (inactive) | > 100 µM (inactive) | > 100 µM (inactive) | > 100 µM (inactive) | > 100 µM (inactive) | > 100 µM (inactive) | > 100 µM (inactive) | > 100 µM (inactive) | > 100 | > 100 µM (inactive) | > 100 µM (inactive) |
| CN1c2ccccc2C2=C(c3ccccc3)CC[C@@H](C(=O)N3C4CC5CC[C@@]4(CS3(=O)=O)C5(C)C)[C@@H]21 (stereo partly drawn) | > 100 µM (inactive) | > 100 µM (inactive) | > 100 µM (inactive) | > 100 µM (inactive) | > 100 µM (inactive) | > 100 µM (inactive) | > 100 µM (inactive) | > 100 µM (inactive) | 10.5 µM (inactive) | > 100 µM (inactive) | > 100 µM (inactive) | 4.1 µM (inactive) | > 100 µM (inactive) | > 100 µM (inactive) |  | > 100 µM (inactive) | > 100 µM (inactive) | > 100 | > 100 µM (inactive) | > 100 µM (inactive) |
| O=C1NC(Nc2ccccc2Cl)=N/C1=C\c1c(Cl)cccc1Cl | 11 µM (inactive) | 27 µM (inactive) | 31.6 µM (inactive) | 39.7 µM (inactive) | 33.4 µM (inactive) | 31.1 µM (inactive) | 34.5 µM (inactive) | 30.4 µM (inactive) | 17.1 µM (inactive) | 51.8 µM (inactive) | 27.7 µM (inactive) | 25.1 µM (inactive) | 37.2 µM (inactive) | 27.8 µM (inactive) | 23.4 µM (inactive) | 29.4 µM (inactive) | 31.6 µM (inactive) | 25.5 | 16.5 µM (inactive) | 37.1 µM (inactive) |
| OC1(c2ccccc2)C2CC=CC2C1(c1ccccc1)c1ccccc1 (stereo not drawn) | 20.7 µM (inactive) | 30.8 µM (inactive) | 40.2 µM (inactive) | 70.3 µM (inactive) | 61.7 µM (inactive) | 31 µM (inactive) | 15.8 µM (inactive) | 25.2 µM (inactive) | 35.6 µM (inactive) | 40.1 µM (inactive) | 18.4 µM (inactive) | 42.6 µM (inactive) | 61.7 µM (inactive) | 17.1 µM (inactive) | 16.7 µM (inactive) | 18 µM (inactive) | 18.4 µM (inactive) | 28.6 | 25 µM (inactive) | 41.9 µM (inactive) |
| CC(=O)Nc1cc(Cl)cc(Cl)c1O | > 100 µM (inactive) | > 100 µM (inactive) | > 100 µM (inactive) | > 100 µM (inactive) | > 100 µM (inactive) | > 100 µM (inactive) | > 100 µM (inactive) | > 100 µM (inactive) | > 100 µM (inactive) | > 100 µM (inactive) | > 100 µM (inactive) | > 100 µM (inactive) | > 100 µM (inactive) | > 100 µM (inactive) | > 100 µM (inactive) |  | > 100 µM (inactive) | > 100 | > 100 µM (inactive) | > 100 µM (inactive) |
| CO/N=C1/C(n2[nH]c(=O)n(-c3ccccc3)c2=O)C2C=CC1n1c(=O)n(-c3ccccc3)c(=O)n12 (stereo not drawn) | > 100 µM (inactive) | > 100 µM (inactive) | > 100 µM (inactive) |  | > 100 µM (inactive) | > 100 µM (inactive) | > 100 µM (inactive) | > 100 µM (inactive) | > 100 µM (inactive) | > 100 µM (inactive) | > 100 µM (inactive) | > 100 µM (inactive) | > 100 µM (inactive) | > 100 µM (inactive) | > 100 µM (inactive) | > 100 µM (inactive) | > 100 µM (inactive) | > 100 | > 100 µM (inactive) | > 100 µM (inactive) |
| Nc1ncc2c(n1)-c1ccccc1OC2N1CCCCC1 (stereo not drawn) | > 100 µM (inactive) | > 100 µM (inactive) | > 100 µM (inactive) |  | > 100 µM (inactive) | > 100 µM (inactive) | > 100 µM (inactive) | > 100 µM (inactive) |  |  | > 100 µM (inactive) | > 100 µM (inactive) | > 100 µM (inactive) | > 100 µM (inactive) | > 100 µM (inactive) | > 100 µM (inactive) | > 100 µM (inactive) | > 100 | > 100 µM (inactive) | > 100 µM (inactive) |
| CCCCCCCCCCC/C=C(/C(=O)CCCO[Si](C)(C)C(C)(C)C)C(=O)OC | > 100 µM (inactive) | > 100 µM (inactive) | > 100 µM (inactive) | > 100 µM (inactive) | > 100 µM (inactive) | > 100 µM (inactive) | > 100 µM (inactive) |  | > 100 µM (inactive) | > 100 µM (inactive) | > 100 µM (inactive) | > 100 µM (inactive) | > 100 µM (inactive) | > 100 µM (inactive) | > 100 µM (inactive) | > 100 µM (inactive) | > 100 µM (inactive) | > 100 | > 100 µM (inactive) | > 100 µM (inactive) |
| COC(=O)C1=C(C)N2[C@H](C(=O)O)CS[C@@]2(C)[C@H](C(=O)OC)[C@H]1c1cccc([N+](=O)[O-])c1 | > 100 µM (inactive) | > 100 µM (inactive) | > 100 µM (inactive) | > 100 µM (inactive) | > 100 µM (inactive) | > 100 µM (inactive) | > 100 µM (inactive) | > 100 µM (inactive) | > 100 µM (inactive) | > 100 µM (inactive) | > 100 µM (inactive) | > 100 µM (inactive) | > 100 µM (inactive) | > 100 µM (inactive) | > 100 µM (inactive) |  | > 100 µM (inactive) | > 100 | > 100 µM (inactive) | > 100 µM (inactive) |
| N#CC1C(=S)NC(c2ccccc2)=CC12CCCCC2 (stereo not drawn) | 18.2 µM (inactive) |  | 32.1 µM (inactive) |  | 35 µM (inactive) | 66.8 µM (inactive) | 22.8 µM (inactive) | 29.6 µM (inactive) | 26.5 µM (inactive) | 34.4 µM (inactive) | 30.1 µM (inactive) | 38 µM (inactive) | 26.6 µM (inactive) | 47.3 µM (inactive) | 87.1 µM (inactive) | 18.6 µM (inactive) | 27.6 µM (inactive) | 19.9 | 31.5 µM (inactive) | 15.7 µM (inactive) |
| O=C(/C=C/c1ccc(C(F)(F)F)cc1)c1c([O-])on[n+]1-c1ccccc1 | 1.86 µM (inactive) | 1.58 µM (inactive) | 1.92 µM (inactive) | 3.95 µM (inactive) | 0.531 µM (active) |  | 7.05 µM (inactive) | 4.03 µM (inactive) | 0.395 µM (active) | 1.61 µM (inactive) | 1.75 µM (inactive) | 3.19 µM (inactive) | 2.21 µM (inactive) | 0.288 µM (active) | 1.27 µM (inactive) | 0.403 µM (active) | 0.889 µM (active) | 1.31 | 1.84 µM (inactive) | 3.13 µM (inactive) |
| O=[N+]([O-])c1ccc(/N=N/c2c(O)ccc3cc(S(=O)(=O)O)ccc23)cc1 | > 100 µM (inactive) | > 100 µM (inactive) | > 100 µM (inactive) | > 100 µM (inactive) | > 100 µM (inactive) | > 100 µM (inactive) | > 100 µM (inactive) | > 100 µM (inactive) | > 100 µM (inactive) | > 100 µM (inactive) | > 100 µM (inactive) | > 100 µM (inactive) | > 100 µM (inactive) | > 100 µM (inactive) | > 100 µM (inactive) | > 100 µM (inactive) | > 100 µM (inactive) | > 100 | > 100 µM (inactive) | > 100 µM (inactive) |

— ChEMBL document CHEMBL1201862, “PubChem BioAssay data set” (2004)
